How the values were obtained:
[1] = tested on: Leukotriene C4 formation; assay: Leukotriene C4 formation inhibitory activity (sensitized guinea pig lung fragments); assay type: cell-based; settings: Cavia porcellus; 10^-5 M; ovalbumin-sensitized guinea pig lung fragments, ovalbumin challenge in vitro, radioimmunoassay
Method: Leukotriene C4 formation inhibitory activity
Lung fragments of guinea pig sensitized with ovalbumin were treated with the test compound and challenged with ovalbumin in vitro. After solvent extraction, leukotriene C4 in the supernatant was determined by radioimmunoassay. The leukotriene C4 formation inhibitory activity of the test compound is expressed as % inhibition at the sample concentration of 10^-5 M.

[2] = target: T1, 5-lipoxygenase (Rattus norvegicus, UniProt P12527); assay: 5-Lipoxygenase inhibitory activity (5-HETE formation, enzyme solution from RBL-1 cells); assay type: biochemical; settings: radiolabelled arachidonic acid substrate, indomethacin, calcium chloride, ATP; RBL-1 enzyme
T1 construct: An enzyme solution containing 5-lipoxygenase was prepared from cultured basophilic leukemia cell strain RBL-1 cells; endogenous in cells; host or cells: RBL-1 cells
T1 sequence (P12527 1-673): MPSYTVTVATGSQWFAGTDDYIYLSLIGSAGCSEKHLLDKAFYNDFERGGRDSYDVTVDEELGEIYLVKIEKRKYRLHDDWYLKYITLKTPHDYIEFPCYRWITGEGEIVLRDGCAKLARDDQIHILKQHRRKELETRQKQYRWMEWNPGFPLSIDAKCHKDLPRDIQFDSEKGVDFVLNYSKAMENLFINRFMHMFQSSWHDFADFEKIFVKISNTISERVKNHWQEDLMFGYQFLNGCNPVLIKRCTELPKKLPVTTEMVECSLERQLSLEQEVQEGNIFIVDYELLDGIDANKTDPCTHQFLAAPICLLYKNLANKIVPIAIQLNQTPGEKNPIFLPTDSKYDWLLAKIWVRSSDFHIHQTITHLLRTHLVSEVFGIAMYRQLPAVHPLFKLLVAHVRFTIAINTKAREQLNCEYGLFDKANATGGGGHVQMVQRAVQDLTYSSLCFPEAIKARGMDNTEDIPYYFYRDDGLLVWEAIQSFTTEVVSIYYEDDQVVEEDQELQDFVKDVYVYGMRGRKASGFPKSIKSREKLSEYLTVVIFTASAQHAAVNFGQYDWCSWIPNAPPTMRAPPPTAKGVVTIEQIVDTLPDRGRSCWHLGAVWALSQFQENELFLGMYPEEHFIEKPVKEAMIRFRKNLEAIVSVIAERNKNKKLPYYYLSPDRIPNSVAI
Method: An enzyme solution containing 5-lipoxygenase was prepared from cultured basophilic leukemia cell strain RBL-1 cells, and the reaction was carried out with radiolabelled arachidonic acid as the substrate in the presence of indomethacin, calcium chloride, adenosine triphosphate and the substance to be tested. A predetermined amount of the reaction mixture was spotted on a thin layer, separated by development, and then the radioactivity of the 5-HETE (5-hydroxyeicosatetraenic acid) fraction of the enzyme reaction product was measured to give the index of the 5-lipoxygenase activity. […] [Method of M. Furukawa et al. described in Biochimica et Biophysica acta, vol. 795, p. 458 (1984)]

[3] = tested on: Leukotriene B4 formation; assay: Leukotriene B4 formation inhibitory activity (guinea pig neutrophil suspension); assay type: cell-based; settings: Cavia porcellus, 10^-6 M, guinea pig neutrophils, calcium ionophore A23187 and arachidonic acid, HPLC
Method: Leukotriene B4 formation inhibitory activity
A neutrophil suspension, prepared by administration of casein intraperitoneally to guinea pig, was treated with the test compound and challenged with calcium ionophore A23187 and arachidonic acid. After solvent extraction, leukotriene B4 was assayed by high performance liquid chromatography. The leukotriene B4 formation inhibitory activity of the test compound is expressed as % inhibition at the sample concentration of 10^-6 M. [Method of Douglass et al. described in Prostaglandins vol. 31, p. 358 (1986)]

[4] = tested on: lipoxygenase; settings: cited from earlier work
[5] = tested on: PCA (passive cutaneous anaphylaxis); settings: cited from earlier work
[6] = stabilizer for polymers; cited from earlier work

IC50 [2] | SMILES | inhibition at 1 µM [3] | further results
– | Cc1cc(NC(=O)c2ccsc2)cc(C)c1O [drawing 25] | – | inhibition at 10 µM [1]: 62.9%
– | COc1cccc(CCC(=O)Nc2cc(C)c(O)c(C)c2)c1 | – | inhibition at 10 µM [1]: 66.9%
220 nM | COc1ccc(/C=C/C(=O)Nc2cc(C)c(O)c(C)c2)cc1 [drawing 17] | – | –
400 nM | CC=CC=CC(=O)Nc1cc(C)c(O)c(C)c1 | – | –
– | CC(=O)Oc1ccc(/C=C/C(=O)Nc2cc(C)c(O)c(C)c2)cc1OC(C)=O | 82% | –
– | COc1ccc(/C=C(\C)C(=O)Nc2cc(C)c(O)c(C)c2)cc1 [drawing 37] | – | inhibition at 10 µM [1]: 58.1%
440 nM | Cc1cc(NC(=O)/C=C/c2cccn2C)cc(C)c1O | – | –
– | COc1cccc(/C=C/C(=O)Nc2cc(C)c(O)c(C)c2)c1 [drawing 35] | – | inhibition at 10 µM [1]: 46%
– | CCCc1cc(F)c2oc(C(=O)OCc3ccccc3)c(C)c2c1O | – | lipoxygenase inhibitory activity [4]: lipoxygenase inhibitory activity
– | CC(=O)Oc1ccc(CCC(=O)Nc2cc(C)c(O)c(C)c2)cc1OC(C)=O [drawing 45] | 81.9% | –
250 nM | COc1ccc(CCC(=O)Nc2cc(C)c(O)c(C)c2)cc1 [drawing 21] | – | –
– | COc1ccc(/C=C(\C)C(=O)Nc2cc(C(C)C)c(O)c(C(C)C)c2)cc1 [drawing 47] | 88.8% | –
– | Cc1cc(NC(=O)c2cccs2)cc(C)c1O | – | inhibition at 10 µM [1]: 76.6%
– | CCCCCCCC(=O)Nc1cc(CC)c(O)c(CC)c1 [both C2 H5, (CH2)6 CH3] | 85.6% | –
– | CC(C)=CCC/C(C)=C\C(=O)Nc1cc(C)c(O)c(C)c1 | 95.3% | –
330 nM | CCCCCCCC(=O)Nc1cc(C)c(O)c(C)c1 [both CH3, (CH2)6 CH3] | 59.7% | –
– | COc1ccc(/C=C(\C)C(=O)Nc2cc(C(C)(C)C)c(O)c(C(C)(C)C)c2)cc1 | – | inhibition at 10 µM [1]: 58.3%
300 nM | CCCCCCC(=O)Nc1cc(C)c(O)c(C)c1 [both CH3, (CH2)5 CH3] | 53.1% | –
– | COc1cc(C(=O)Nc2cc(Cl)c(O)c(Cl)c2)cc(OC)c1OC [2,6-dichloro-4-(3,4,5-trimethoxybenzoyl)aminophenol] | – | immune control activity or PCA inhibitory activity [5]: immune control activity or PCA (passive cutaneous anaphylaxis) inhibitory activity
– | CC(C)=CCC/C(C)=C/CC/C(C)=C/C(=O)Nc1cc(C)c(O)c(C)c1 | 90.5% | –
150 nM | COc1ccc(/C=C(\C)C(=O)Nc2cc(C)c(O)c(C)c2)cc1 [drawing 19] | – | –
– | Cc1cnc(Nc2ccc(O)c(C(C)(C)C)c2C(C)(C)C)s1 [4-[2-(5-methyl)thiazolylamino]-2,3-di-tert-butylphenol] | – | lipoxygenase inhibitory activity [4]: lipoxygenase inhibitory activity
210 nM | Cc1cc(NC(=O)c2cc3ccccc3s2)cc(C)c1O | – | –

IC50 [2] | SMILES | inhibition at 1 µM [3] | further results
– | CCCCCCCCCCCC(=O)Nc1cc(CC)c(O)c(C(C)(C)C)c1 [4-(lauroylamino)-2-ethyl-6-tert-butylphenol] | – | antioxidant activity [6]: antioxidant activity
– | Cc1cc(NC(=O)/C=C/c2cccs2)cc(C)c1O [drawing 30] | – | inhibition at 10 µM [1]: 65%
– | Cc1ccc(C(=O)Nc2cc(C)c(O)c(C)c2)s1 [drawing 27] | – | inhibition at 10 µM [1]: 59%
– | CCCc1cc(F)c2oc(C(=O)OCC)c(C)c2c1O | – | lipoxygenase inhibitory activity [4]: lipoxygenase inhibitory activity
– | CCCCCCCCCCCCCCCCCC(=O)Nc1cc(C(C)(C)C)c(O)c(C(C)(C)C)c1 [4-(stearoylamino)-2,6-di-tert-butylphenol] | – | antioxidant activity [6]: antioxidant activity
– | Cc1cc(NC(=O)CCc2cccs2)cc(C)c1O [drawing 28] | – | inhibition at 10 µM [1]: 45.8%
– | COc1cccc(/C=C/C(=O)Nc2cc(C)c(O)c(C)c2)c1 [drawing 42] | 62.6% | –
760 nM | Cc1cc(NC(=O)CCc2cccs2)cc(C)c1O [drawing 13] | – | –
– | CC(C)=CCC/C(C)=C/C(=O)Nc1cc(C)c(O)c(C)c1 | 82.5% | –
– | CCCCCCCC(=O)Nc1cc(C(C)C)c(O)c(C(C)C)c1 [both CH(CH3)2, (CH2)6 CH3] | 69.5% | –
– | COc1ccc(CCC(=O)Nc2cc(C)c(O)c(C)c2)cc1 [drawing 33] | – | inhibition at 10 µM [1]: 49.3%
400 nM | CCCCCCCCC(=O)Nc1cc(C)c(O)c(C)c1 [both CH3, (CH2)7 CH3, 4-nonanoylamino-2,6-dimethylphenol] | 57.3% | –
240 nM | COc1cccc(/C=C/C(=O)Nc2cc(C)c(O)c(C)c2)c1 [drawing 16] | – | –
270 nM | Cc1ccc(C(=O)Nc2cc(C)c(O)c(C)c2)s1 [drawing 8] | – | –
– | CC(C)=CCC/C(C)=C/CC/C(C)=C\C(=O)Nc1cc(C)c(O)c(C)c1 | 98.5% | –
200 nM | Cc1cc(NC(=O)/C=C/c2cccs2)cc(C)c1O [drawing 11] | – | –
– | COc1ccc(CC(C)C(=O)Nc2cc(C)c(O)c(C)c2)cc1 (stereo not shown) | – | inhibition at 10 µM [1]: 58.9%
150 nM | CC(C)c1cc(NC(=O)c2cccs2)cc(C(C)C)c1O [4-(2-thienylcarbonyl)-amino-2,6-diisopropylphenol] | – | inhibition at 10 µM [1]: 79.9%
– | COc1ccc(/C=C/C(=O)Nc2cc(C)c(O)c(C)c2)cc1 [drawing 43] | 65.6% | –
810 nM | Cc1cc(NC(=O)c2ccsc2)cc(C)c1O [drawing 7] | – | –
200 nM | CC(=O)Oc1ccc(CCC(=O)Nc2cc(C)c(O)c(C)c2)cc1OC(C)=O [drawing 20] | – | –
150 nM | COc1ccc(/C=C(\C)C(=O)Nc2cc(C(C)C)c(O)c(C(C)C)c2)cc1 [drawing 22] | – | –

Reference: patent publication US5047555A, “4-aminophenol derivatives and processes for preparing the same” (Tanabe Seiyaku Co., Ltd., priority 1988, dated 1991)
